According to PubChem BioAssay (NCI):
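Step 1: Grow cells in 96-well plates. Step 2: Expose to compound for 48 hours at 5 concentrations. Step 3: Interpolate endpoints linearly; if unreached, use highest concentration. Abbreviation: GI50, concentration required for 50% inhibition of growth. The concentration for full growth arrest is given as TGI.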

Key:
Assay in all cases: NCI-60 cell line screen, 48 h
RPMI-8226 leukemia = tested on: RPMI-8226 leukemia
CCRF-CEM leukemia = tested on: CCRF-CEM leukemia
ACHN renal = tested on: ACHN renal
HS 578T breast = tested on: HS 578T breast
SK-MEL-28 melanoma = tested on: SK-MEL-28 melanoma
UACC-257 melanoma = tested on: UACC-257 melanoma
EKVX NSCLC = tested on: EKVX NSCLC
MALME-3M melanoma = tested on: MALME-3M melanoma
K-562 leukemia = tested on: K-562 leukemia
SK-OV-3 ovarian = tested on: SK-OV-3 ovarian
NCI-H226 lung = tested on: NCI-H226 lung
COLO 205 colon = tested on: COLO 205 colon
DU-145 prostate = tested on: DU-145 prostate
SK-MEL-5 melanoma = tested on: SK-MEL-5 melanoma
BT-549 breast = tested on: BT-549 breast
HT29 colon = tested on: HT29 colon
OVCAR-5 ovarian = tested on: OVCAR-5 ovarian
HOP-62 NSCLC = tested on: HOP-62 NSCLC
NCI-H23 lung = tested on: NCI-H23 lung
SF-268 CNS = tested on: SF-268 CNS
HCT-15 colon = tested on: HCT-15 colon
UO-31 renal = tested on: UO-31 renal
OVCAR-8 ovarian = tested on: OVCAR-8 ovarian
RXF 393 renal = tested on: RXF 393 renal
MOLT-4 leukemia = tested on: MOLT-4 leukemia
HOP-92 NSCLC = tested on: HOP-92 NSCLC
MDA-MB-435 = tested on: MDA-MB-435
UACC-62 melanoma = tested on: UACC-62 melanoma
786-0 renal = tested on: 786-0 renal
NCI-H522 lung = tested on: NCI-H522 lung
A498 renal = tested on: A498 renal
IGROV1 ovarian = tested on: IGROV1 ovarian
HCC-2998 colon = tested on: HCC-2998 colon
MDA-MB-231 breast = tested on: MDA-MB-231 breast
CAKI-1 renal = tested on: CAKI-1 renal
SR leukemia = tested on: SR leukemia
LOX IMVI melanoma = tested on: LOX IMVI melanoma
T-47D breast = tested on: T-47D breast
M14 melanoma = tested on: M14 melanoma
SNB-75 CNS = tested on: SNB-75 CNS
OVCAR-4 ovarian = tested on: OVCAR-4 ovarian
SW-620 colon = tested on: SW-620 colon
U251 CNS = tested on: U251 CNS
SNB-19 CNS = tested on: SNB-19 CNS
SF-539 CNS = tested on: SF-539 CNS
SN12C renal = tested on: SN12C renal
PC-3 prostate = tested on: PC-3 prostate
A549 NSCLC = tested on: A549 NSCLC
SF-295 CNS = tested on: SF-295 CNS
TK-10 renal = tested on: TK-10 renal
NCI/ADR-RES ovarian = tested on: NCI/ADR-RES ovarian
KM12 colon = tested on: KM12 colon
NCI-H460 lung = tested on: NCI-H460 lung
MCF7 breast = tested on: MCF7 breast
SK-MEL-2 melanoma = tested on: SK-MEL-2 melanoma
HCT-116 colon = tested on: HCT-116 colon
OVCAR-3 ovarian = tested on: OVCAR-3 ovarian
HL-60(TB) leukemia = tested on: HL-60(TB) leukemia

O=C(Nc1ccc(I)cc1)c1cc([N+](=O)[O-])ccc1O
GI50 (RPMI-8226 leukemia): 2.65 µM
TGI (RPMI-8226 leukemia): 8.78 µM
GI50 (CCRF-CEM leukemia): 3.69 µM
TGI (CCRF-CEM leukemia): 50.1 µM
GI50 (ACHN renal): 9.28 µM
TGI (ACHN renal): > 100 µM
GI50 (HS 578T breast): 3.13 µM
TGI (HS 578T breast): 29.3 µM
GI50 (SK-MEL-28 melanoma): 9.53 µM
TGI (SK-MEL-28 melanoma): 72.3 µM
GI50 (UACC-257 melanoma): 6.89 µM
TGI (UACC-257 melanoma): 34.6 µM
GI50 (EKVX NSCLC): 6.72 µM
TGI (EKVX NSCLC): > 100 µM
GI50 (MALME-3M melanoma): 19.9 µM
TGI (MALME-3M melanoma): 70.3 µM
GI50 (K-562 leukemia): 4.69 µM
TGI (K-562 leukemia): > 100 µM
GI50 (SK-OV-3 ovarian): 6.15 µM
TGI (SK-OV-3 ovarian): > 100 µM
GI50 (NCI-H226 lung): 6.19 µM
TGI (NCI-H226 lung): 80.4 µM
GI50 (COLO 205 colon): 10.9 µM
TGI (COLO 205 colon): 28.1 µM
GI50 (DU-145 prostate): 17 µM
TGI (DU-145 prostate): > 100 µM
GI50 (SK-MEL-5 melanoma): 3.63 µM
TGI (SK-MEL-5 melanoma): 18.6 µM
GI50 (BT-549 breast): 5.36 µM
TGI (BT-549 breast): 27.1 µM
GI50 (HT29 colon): 13.3 µM
TGI (HT29 colon): 89.7 µM
GI50 (OVCAR-5 ovarian): 27.9 µM
TGI (OVCAR-5 ovarian): > 100 µM
GI50 (HOP-62 NSCLC): 16.4 µM
TGI (HOP-62 NSCLC): > 100 µM
GI50 (NCI-H23 lung): 4.07 µM
TGI (NCI-H23 lung): > 100 µM
GI50 (SF-268 CNS): 7.03 µM
TGI (SF-268 CNS): > 100 µM
GI50 (HCT-15 colon): 5.77 µM
TGI (HCT-15 colon): 38.9 µM
GI50 (UO-31 renal): 3.77 µM
TGI (UO-31 renal): 47.6 µM
GI50 (OVCAR-8 ovarian): 7.21 µM
TGI (OVCAR-8 ovarian): 25.8 µM
GI50 (RXF 393 renal): 2.86 µM
TGI (RXF 393 renal): 23.7 µM
GI50 (MOLT-4 leukemia): 4.67 µM
TGI (MOLT-4 leukemia): 51.3 µM
GI50 (HOP-92 NSCLC): 0.709 µM
TGI (HOP-92 NSCLC): 3.99 µM
GI50 (MDA-MB-435): 6.91 µM
TGI (MDA-MB-435): > 100 µM
GI50 (UACC-62 melanoma): 3.38 µM
TGI (UACC-62 melanoma): 14.1 µM
GI50 (786-0 renal): 6.4 µM
TGI (786-0 renal): > 100 µM
GI50 (NCI-H522 lung): 2.92 µM
TGI (NCI-H522 lung): 15.9 µM
GI50 (A498 renal): 1.45 µM
TGI (A498 renal): 5.17 µM
GI50 (IGROV1 ovarian): 13.8 µM
TGI (IGROV1 ovarian): > 100 µM
GI50 (HCC-2998 colon): 3.82 µM
TGI (HCC-2998 colon): 84 µM
GI50 (MDA-MB-231 breast): 10 µM
TGI (MDA-MB-231 breast): 53.1 µM
GI50 (CAKI-1 renal): 5.39 µM
TGI (CAKI-1 renal): > 100 µM
GI50 (SR leukemia): 6.09 µM
TGI (SR leukemia): 46.5 µM
GI50 (LOX IMVI melanoma): 4.44 µM
TGI (LOX IMVI melanoma): 61 µM
GI50 (T-47D breast): 3.87 µM
TGI (T-47D breast): > 100 µM
GI50 (M14 melanoma): 12.8 µM
TGI (M14 melanoma): 62.8 µM
GI50 (SNB-75 CNS): 8.89 µM
TGI (SNB-75 CNS): 67 µM
GI50 (OVCAR-4 ovarian): 4.57 µM
TGI (OVCAR-4 ovarian): 90.8 µM
GI50 (SW-620 colon): 15.5 µM
TGI (SW-620 colon): 54.5 µM
GI50 (U251 CNS): 6.4 µM
TGI (U251 CNS): 66.1 µM
GI50 (SNB-19 CNS): 5.5 µM
TGI (SNB-19 CNS): > 100 µM
GI50 (SF-539 CNS): 11.4 µM
TGI (SF-539 CNS): 80 µM
GI50 (SN12C renal): 4.61 µM
TGI (SN12C renal): 75.4 µM
GI50 (PC-3 prostate): 3.42 µM
TGI (PC-3 prostate): 23.4 µM
GI50 (A549 NSCLC): 11.6 µM
TGI (A549 NSCLC): > 100 µM
GI50 (SF-295 CNS): 4.02 µM
TGI (SF-295 CNS): 39.8 µM
GI50 (TK-10 renal): 9.9 µM
TGI (TK-10 renal): > 100 µM
GI50 (NCI/ADR-RES ovarian): 5.85 µM
TGI (NCI/ADR-RES ovarian): > 100 µM
GI50 (KM12 colon): 5.36 µM
TGI (KM12 colon): 40.9 µM
GI50 (NCI-H460 lung): 6.42 µM
TGI (NCI-H460 lung): 56.8 µM
GI50 (MCF7 breast): 3.93 µM
TGI (MCF7 breast): > 100 µM
GI50 (SK-MEL-2 melanoma): 3.54 µM
TGI (SK-MEL-2 melanoma): 20.1 µM
GI50 (HCT-116 colon): 6.21 µM
TGI (HCT-116 colon): 31.7 µM
GI50 (OVCAR-3 ovarian): 3.74 µM
TGI (OVCAR-3 ovarian): 32.1 µM
GI50 (HL-60(TB) leukemia): 5.44 µM
TGI (HL-60(TB) leukemia): 57.8 µM
